Laboratory results reported in patent EP3263567A1, “CARBOXAMIDE-SUBSTITUTED PYRAZOLES AND TRI(HETERO)ARYL-PYRAZOLES FOR USE IN METHODS OF TREATING AND / OR PREVENTING CARDIOVASCULAR DISEASES AND / OR COMORBIDITIES THEREOF” (AiCuris Anti-infective Cures GmbH, priority 2016, dated 2018).

Assays:
human HCN4 currents = target: T1, human HCN4 currents (Homo sapiens, UniProt Q9Y3Q4); test: Whole-cell patch-clamp, HCN4 steady state currents in transiently transfected CHO cells; assay type: cell-based; details: for IC50: CHO cells transiently expressing HCN4, steady state current at -120 mV, n=3, read-out: IC50 (inhibition of HCN4 currents); for inhibition of the HCN4 current (result in words): tested first at 10 µM
T1 construct: CHO cells transiently expressing the HCN4 channel; expressed in transfected cells; host or cells: CHO (ATCC CCL-61), transiently transfected
T1 sequence (Q9Y3Q4 1-1203): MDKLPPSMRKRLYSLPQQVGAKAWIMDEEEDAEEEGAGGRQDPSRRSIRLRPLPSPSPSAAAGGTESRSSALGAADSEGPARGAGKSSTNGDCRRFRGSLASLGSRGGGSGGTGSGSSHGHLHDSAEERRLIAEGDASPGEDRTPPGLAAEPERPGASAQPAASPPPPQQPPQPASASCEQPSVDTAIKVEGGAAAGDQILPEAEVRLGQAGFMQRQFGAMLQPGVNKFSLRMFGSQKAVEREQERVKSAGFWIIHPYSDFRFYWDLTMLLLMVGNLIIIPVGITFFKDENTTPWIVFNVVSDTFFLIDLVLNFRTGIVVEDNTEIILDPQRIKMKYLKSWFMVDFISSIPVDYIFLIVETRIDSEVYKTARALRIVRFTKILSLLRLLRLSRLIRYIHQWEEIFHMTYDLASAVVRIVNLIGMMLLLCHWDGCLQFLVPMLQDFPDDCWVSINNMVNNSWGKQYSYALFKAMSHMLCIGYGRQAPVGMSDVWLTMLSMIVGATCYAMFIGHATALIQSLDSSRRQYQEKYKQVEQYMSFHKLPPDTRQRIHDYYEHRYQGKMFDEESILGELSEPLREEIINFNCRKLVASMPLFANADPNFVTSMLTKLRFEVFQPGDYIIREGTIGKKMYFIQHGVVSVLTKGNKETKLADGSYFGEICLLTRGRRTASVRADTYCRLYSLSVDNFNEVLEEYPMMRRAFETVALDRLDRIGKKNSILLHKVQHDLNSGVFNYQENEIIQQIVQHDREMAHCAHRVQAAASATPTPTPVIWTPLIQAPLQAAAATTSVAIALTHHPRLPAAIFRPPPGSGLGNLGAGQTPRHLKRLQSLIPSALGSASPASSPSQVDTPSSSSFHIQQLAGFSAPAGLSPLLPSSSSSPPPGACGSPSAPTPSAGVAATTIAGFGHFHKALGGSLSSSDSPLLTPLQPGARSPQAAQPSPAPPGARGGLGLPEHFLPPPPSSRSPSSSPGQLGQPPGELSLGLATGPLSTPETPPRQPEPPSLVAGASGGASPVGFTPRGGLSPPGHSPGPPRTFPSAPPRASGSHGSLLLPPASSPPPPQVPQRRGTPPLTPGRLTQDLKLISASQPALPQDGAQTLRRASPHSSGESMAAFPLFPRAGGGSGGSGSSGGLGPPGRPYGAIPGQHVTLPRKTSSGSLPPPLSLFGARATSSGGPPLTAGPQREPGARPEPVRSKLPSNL
Excerpt: The following six compounds in accordance with the invention: • Compound A: [drawing 81] i.e. 4-[5-[3-Chloro-5-(trifluoromethoxy) phenyl]-1-(pyridin-3-yl)-1H-pyrazol-3-yl]-5,6-dihydro-7H-pyrrolo[3,4-d]pyrimidin-7-one, • Compound B: [drawing 82] i.e. 4-[5-[3-Chloro-5-(trifluoromethoxy) phenyl]-1-(pyridin-3-yl)-1H-pyrazol-3-yl]-2,3-dihydro-1H-pyrrolo[3,4-c] pyridin-1-one, • Compound C: [drawing 83] i.e. 4-[5-[3-Chloro-5-(trifluoromethoxy) phenyl]-1-(pyridin-3-yl)-1H-pyrazol-3-yl]-5,6-dihydro-2-methyl-7H-pyrrolo[3, 4-d] pyrimidin-7-one, • Compound D: [drawing 84] i.e. 3-Amino-4-[5-[3-chloro-5-(trifluoromethoxy) phenyl]-1-(pyridin-3-yl)-1H-pyrazol-3-yl-carbonyl]-1,5-dihydro-2H-pyrrol-2-one, • Compound E: [drawing 85] i.e. 1-[[5-[3-Chloro-5-(trifluoromethoxy) phenyl]-1-(pyridin-3-yl)-1H-pyrazol-3-yl]carbonyl]-imidazolidin-4-one, • Compound F: [drawing 86] i.e. 4-[5-[3-Chloro-5-(trifluoromethoxy) phenyl]-1-(3-cyano-4-fluoro-phenyl)-1H-pyrazol-3-yl]-5,6-dihydro-7H-pyrrolo[3,4-d]pyrimidin-7-one, were tested on their effects on human HCN4 currents recorded from transiently transfected CHO cells, in direct comparison to the reference compounds described below: • Ivabradine: [drawing 87] i.e. ((S)-3-{3-[([3,4-Dimethoxy-bicyclo [4.2.0]octa-1,3,5-trien-7-yl]methyl)methylamino]propyl}-1,3,4,5-tetrahydro-7,8-dimethoxy-2H-3-benzazepin-2-on), • Compound X: [drawing 88] i.e. 1-[[1-(3-Chloro-4-fluorophenyl)-5-(3-chloro-5-fluorophenyl)-1 H-pyrazol-3-yl]carbonyl]-imidazolidin-4-one, • Compound Y: [drawing 89] i.e. N-(2-Amino-2-oxoethyl)-1-(3-chloro-4-fluorophenyl)-5-(3-chloro-5-fluorophenyl)-1H-pyrazole-3-carboxamide.
The pyrazole compounds X and Y as depicted above, and having structural similarities to the compounds of general formula (I) of the invention, were also tested to investigate whether the pure If current inhibitory effect of the compounds of the invention also extend to structurally closely related compounds.
Dependent on their solubility in the assay buffer, the compounds were tested first at one concentration of 10 µM (compound A, compound Y, compound X, compound B, compound E, compound F and ivabradine) or 1 µM for (compound C and D). If the current blocking of HCN4 at this concentration was higher than 50% the compounds were tested again at five concentrations of a half-logarithmic dilution series starting with either 10 µM or 1 µM as mentioned above (meaning 0.1 µM, 0.3 µM, 1 µM, 3 µM, and 10 µM or 0.01 µM, 0.03 µM 0.1 µM, 0.3 µM and 1 µM).
Test system: CHO cells transiently expressing the HCN4 channel; NCBI Reference Sequence: NP005468.1 (HCN4 channel); Source CHO: ATCC, CCL-61 LGC Standards GmbH, Wesel, Germany were used.
In 35 mm culture dishes CHO cells were seeded at a density allowing single cells to be recorded on the dish holder of the microscope and continuously perfused (at approximately 1 mL/min) with the bath solution described above. All solutions applied to cells including the pipette solution were maintained at room temperature (19 °C - 30 °C). After formation of a Gigaohm seal between the patch electrodes and individual cells (pipette resistance range: 2.0 MΩ - 7.0 MΩ; seal resistance range: > 1 GΩ) the cell membrane across the pipette tip was ruptured to assure electrical access to the cell interior (whole-cell patch-configuration). As soon as a stable seal was established, steady state currents were measured upon the hyperpolarization to -120 mV (2000 ms) from a holding potential of -40 mV. This voltage protocol (as shown in the scheme below) did run 5 times for control conditions and at least ten times for each test concentration. Pulse intervals were 20 s (0.05 Hz). If current amplitude was judged to be too low for measurement, another cell was recorded.
Once control recordings have been accomplished, cells were continuously perfused with bath solution containing the tested compounds as detailed above, 0.1 % DMSO or 100 µM ZD7288. […]

HCN4 = target: T2, HCN4 (Homo sapiens, UniProt Q9Y3Q4); details: literature value, Stieber et al. (2006) Mol Pharmacol 69, 1328-1337; read-out: IC50 mean (block of HCN4 channels); cited from earlier work
T2 sequence (Q9Y3Q4 1-1203): T1 sequence (Q9Y3Q4 1-1203)

in vivo = details: dog, po, 30 mg/kg
Description: (§1) A single oral dose of 30 or 100 mg/kg was applied to dogs. Pharmacokinetic parameters were assessed and compared.
Male and female Beagle dogs.
(§2) Plasma concentrations were obtained by LC-MS/MS measurements.

[1] = Pharmacokinetics after single oral administration of formulations to dogs; details: 30 mg/kg single oral dose
Description: as §1
Male and female Beagle dogs.
as §2

Question: Which IC50 (human HCN4 currents) does the source give for `NC1=C(C(=O)c2cc(-c3cc(Cl)cc(OC(F)(F)F)c3)n(-c3cccnc3)n2)CNC1=O` [Compound D, 3-Amino-4-[5-[3-chloro-5-(trifluoromethoxy)phenyl]-1-(pyridin-3-yl)-1H-pyrazol-3-yl-carbonyl]-1,5-dihydro-2H-pyrrol-2-one] here?
Answer: 30 to 580 nM

Question: For `Cc1nc2c(c(-c3cc(-c4cc(Cl)cc(OC(F)(F)F)c4)n(-c4cccnc4)n3)n1)CNC2=O` [Compound C, 4-[5-[3-Chloro-5-(trifluoromethoxy)phenyl]-1-(pyridin-3-yl)-1H-pyrazol-3-yl]-5,6-dihydro-2-methyl-7H-pyrrolo[3,4-d] pyrimidin-7-one], which IC50 (human HCN4 currents) is on record?
Answer: 30 to 580 nM

Question: What does the source list for `COc1cc2c(cc1OC)CC(=O)N(CCCN(C)C[C@H]1Cc3cc(OC)c(OC)cc31)CC2` [Ivabradine, (S)-3-{3-[([3,4-Dimethoxy-bicyclo [4.2.0]octa-1,3,5-trien-7-yl]methyl)methylamino]propyl}-1,3,4,5-tetrahydro-7,8-dimethoxy-2H-3-benzazepin-2-on, reference compound]?
Answer: IC50 (human HCN4 currents): 4460 nM; IC50 (HCN4): ~2150 nM

Question: For `O=C1CN(C(=O)c2cc(-c3cc(F)cc(Cl)c3)n(-c3ccc(F)c(Cl)c3)n2)CN1` [Compound X, 1-[[1-(3-Chloro-4-fluorophenyl)-5-(3-chloro-5-fluorophenyl)-1 H-pyrazol-3-yl]carbonyl]-imidazolidin-4-one, reference compound], which “inhibition of the HCN4 current (result in words)” value (human HCN4 currents) is on record?
Answer: not identified as inhibitors of the HCN4 current

Question: Which IC50 (human HCN4 currents) does the source give for `O=C1CN(C(=O)c2cc(-c3cc(Cl)cc(OC(F)(F)F)c3)n(-c3cccnc3)n2)CN1` [Compound E, 1-[[5-[3-Chloro-5-(trifluoromethoxy)phenyl]-1-(pyridin-3-yl)-1H-pyrazol-3-yl]carbonyl]-imidazolidin-4-one] here?
Answer: 30 to 580 nM

Question: For `O=C1NCc2c1ccnc2-c1cc(-c2cc(Cl)cc(OC(F)(F)F)c2)n(-c2cccnc2)n1` [Compound B, 4-[5-[3-Chloro-5-(trifluoromethoxy)phenyl]-1-(pyridin-3-yl)-1H-pyrazol-3-yl]-2,3-dihydro-1H-pyrrolo[3,4-c] pyridin-1-one], which “block of HCN4 currents at a single concentration” value (human HCN4 currents; 0.1 µM) is on record?
Answer: almost completely

Question: What about the IC50 (human HCN4 currents) of the same compound?
Answer: 30 to 580 nM

Question: Which “relative steady state current (HCN4)” value (human HCN4 currents; 100 µM, mean ± SEM of n=3 cells) does the source give for `CCN(c1ccccc1)c1cc(NC)[n+](C)c(C)n1` [ZD7288, reference compound] here?
Answer: 12.89 ± 1.19%

Question: With `N#Cc1cc(-n2nc(-c3ncnc4c3CNC4=O)cc2-c2cc(Cl)cc(OC(F)(F)F)c2)ccc1F` [Compound F, 4-[5-[3-Chloro-5-(trifluoromethoxy)phenyl]-1-(3-cyano-4-fluoro-phenyl)-1H-pyrazol-3-yl]-5,6-dihydro-7H-pyrrolo[3,4-d]pyrimidin-7-one] as the compound, how does the IC50 (human HCN4 currents) read?
Answer: 30 to 580 nM

Question: What does the source list for `O=C1NCc2c1ncnc2-c1cc(-c2cc(Cl)cc(OC(F)(F)F)c2)n(-c2cccnc2)n1` [ethane sulfonate]?
Answer: AUC(0-inf) (in vivo): 218 µg·h/mL; vomiting [1]: two to three out of four animals

Question: With `NC(=O)CNC(=O)c1cc(-c2cc(F)cc(Cl)c2)n(-c2ccc(F)c(Cl)c2)n1` [Compound Y, N-(2-Amino-2-oxoethyl)-1-(3-chloro-4-fluorophenyl)-5-(3-chloro-5-fluorophenyl)-1H-pyrazole-3-carboxamide, reference compound] as the compound, how does the “inhibition of the HCN4 current (result in words)” value (human HCN4 currents) read?
Answer: not identified as inhibitors of the HCN4 current
